Consider 3 compounds from patent US5935945A, “Methods of treating or preventing cardiac arrhythmia” (Merck & Co., Inc., priority 1997, dated 1999).

Holding throughout (type): cell-based
Assay [1] has as its system IK1 (inward rectifier K^+ current). The assay can be described thus: Voltage-clamp measurement of IK1 in guinea pig ventricular myocytes. As to the method: (§1) Guinea pig ventricular myocytes were isolated using a modification of the procedure described by Mitra et al., Am. J. Physiol. 249:H1056-60 (1985). Excised hearts were perfused through the aorta (retrograde fashion) at a rate of 10 ml/min with oxygenated, warmed (37° C.) solutions described below. The heart was initially perfused for 7 minutes with a Tyrode's solution containing, (in mM): 132 NaCl, 4 KCl, 1.2 MgCl2, 10 HEPES, 5 glucose, pH=7.2. The heart was then perfused with the same nominally Ca^2+ -free solution containing 150 units/ml Type II collagenase (Worthington) and 0.5 units/ml Type XIV protease (Sigma) for 8 minutes. This perfusate was followed by a Tyrode's solution containing 0.2 mM CaCl2 (without enzymes) for 5 minutes. The digested ventricles were cut into small pieces and gently shaken until cells were visibly dispersed. The cells were stored at room temperature until use, within 8 hours after isolation.
(§2) The suction microelectrode technique described by Giles, W. R. and Shibata, E. F., "Voltage clamp of bull-frog cardiac pacemaker cells: a quantitative analysis of potassium currents", J. Physiol. 368:265-292 (1985) was used to voltage clamp the cells. Microelectrodes were made by using a two stage puller from square bore (1.0 mm o.d.) borosilicate capillary tubing. Pipettes were filled with 0.5 M K gluconate, 25 mM KCl and 5 mM K2 ATP. The electrodes had resistances of 3 to 7 M.OMEGA. when filled with this solution. After establishing whole-cell recording mode, negative pressure was maintained on the pipette using a 1 ml gas-tight syringe attached via air tight tubing to the suction port of the microelectrode holder. This minimized dialysis of the cell with the pipette solution.
(§3) To record K^+ currents, the cells were bathed in a Ca^2+ -free Tyrode's solution containing […]. […] To record Ca^2+ currents, the cells were bathed in Tyrode's solution containing 1.8 mM Ca^2+ without nisoldipine. The cell chamber was superfused with solutions at a rate of 1-2 ml/minute, while maintaining the temperature at 35±1° C. A List EPC-7 clamp amplifier was used to voltage clamp the isolated cells. […] (Sanguinetti M. C. and Jurkiewicz, N. K., "Two components of cardiac delayed rectifier K^+ current: Differential sensitivity to block by Class III antiarrhythmic agents", J. Gen Physiol 1990; 96:194-214.) Data was analyzed as % block from control membrane currents.
(§4) Nisoldipine was prepared as a 4 mM stock solution in polyethylene glycol 200. […] At the final concentrations used neither polyethylene glycol 200 nor dimethyl sulfoxide had any effect on any of the measured membrane currents.
(§5) Selectivity for block of cardiac K^+ channels, IK1, IKr, and IKs was determined as previously described in guinea pig ventricular myocytes (U.S. Pat. No. 5,428,031).

Assay [2] addresses T1, IKs (slowly activating delayed rectifier K^+ current) (Cavia porcellus, UniProt O70344).
T1 construct: Guinea pig ventricular myocytes were isolated; from tissue; host or cells: isolated guinea pig ventricular myocytes
The assay can be described thus: Voltage-clamp measurement of IKs in guinea pig ventricular myocytes. As to conditions: read-out: % Block (Guinea Pig Ventricle) IKs. As to the method:
as §1, §2, §3, §4, §5

Assay [3] deals with T2, IKr (rapidly activating delayed rectifier K^+ current) (Cavia porcellus, UniProt O08703).
T2 construct: Guinea pig ventricular myocytes were isolated; from tissue; host or cells: isolated guinea pig ventricular myocytes
T2 sequence (O08703 1-1294): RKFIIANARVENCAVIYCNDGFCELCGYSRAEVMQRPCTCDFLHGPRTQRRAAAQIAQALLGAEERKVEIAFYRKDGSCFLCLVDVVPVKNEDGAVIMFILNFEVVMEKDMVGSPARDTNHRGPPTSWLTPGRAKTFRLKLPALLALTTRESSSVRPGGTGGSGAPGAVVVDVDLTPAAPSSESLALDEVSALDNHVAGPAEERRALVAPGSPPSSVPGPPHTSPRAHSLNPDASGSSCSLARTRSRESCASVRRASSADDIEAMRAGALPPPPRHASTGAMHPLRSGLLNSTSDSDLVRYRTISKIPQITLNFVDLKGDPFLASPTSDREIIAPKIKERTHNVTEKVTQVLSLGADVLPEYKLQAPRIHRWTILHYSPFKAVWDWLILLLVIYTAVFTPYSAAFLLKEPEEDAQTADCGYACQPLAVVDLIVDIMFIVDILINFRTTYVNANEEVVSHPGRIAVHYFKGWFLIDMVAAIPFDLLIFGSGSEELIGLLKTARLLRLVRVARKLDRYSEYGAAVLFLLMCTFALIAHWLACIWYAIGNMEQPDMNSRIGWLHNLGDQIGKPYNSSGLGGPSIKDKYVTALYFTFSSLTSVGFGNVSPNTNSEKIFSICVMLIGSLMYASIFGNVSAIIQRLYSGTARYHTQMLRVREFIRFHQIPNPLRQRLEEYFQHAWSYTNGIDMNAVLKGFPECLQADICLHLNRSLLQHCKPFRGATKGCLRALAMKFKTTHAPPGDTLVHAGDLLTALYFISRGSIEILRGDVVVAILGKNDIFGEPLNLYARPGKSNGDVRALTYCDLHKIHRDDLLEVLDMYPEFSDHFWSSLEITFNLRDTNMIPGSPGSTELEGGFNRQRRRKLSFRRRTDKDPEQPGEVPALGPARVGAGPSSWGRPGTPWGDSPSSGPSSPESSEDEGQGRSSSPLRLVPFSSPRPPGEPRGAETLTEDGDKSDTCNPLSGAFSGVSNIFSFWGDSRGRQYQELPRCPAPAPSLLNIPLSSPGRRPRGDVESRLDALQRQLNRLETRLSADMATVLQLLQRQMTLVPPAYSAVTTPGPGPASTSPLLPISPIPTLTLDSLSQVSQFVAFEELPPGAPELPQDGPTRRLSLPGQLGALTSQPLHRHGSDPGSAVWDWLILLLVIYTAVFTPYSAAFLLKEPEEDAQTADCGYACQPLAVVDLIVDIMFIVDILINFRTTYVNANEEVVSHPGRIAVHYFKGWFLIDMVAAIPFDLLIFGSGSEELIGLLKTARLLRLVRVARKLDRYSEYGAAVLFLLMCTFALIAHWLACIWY
The assay can be described thus: Voltage-clamp measurement of IKr in guinea pig ventricular myocytes. To be noted: read-out: % Block (Guinea Pig Ventricle) IKr. As to the method:
as §1, §2, §3, §4, §5

T1 sequence (O70344 whole entry): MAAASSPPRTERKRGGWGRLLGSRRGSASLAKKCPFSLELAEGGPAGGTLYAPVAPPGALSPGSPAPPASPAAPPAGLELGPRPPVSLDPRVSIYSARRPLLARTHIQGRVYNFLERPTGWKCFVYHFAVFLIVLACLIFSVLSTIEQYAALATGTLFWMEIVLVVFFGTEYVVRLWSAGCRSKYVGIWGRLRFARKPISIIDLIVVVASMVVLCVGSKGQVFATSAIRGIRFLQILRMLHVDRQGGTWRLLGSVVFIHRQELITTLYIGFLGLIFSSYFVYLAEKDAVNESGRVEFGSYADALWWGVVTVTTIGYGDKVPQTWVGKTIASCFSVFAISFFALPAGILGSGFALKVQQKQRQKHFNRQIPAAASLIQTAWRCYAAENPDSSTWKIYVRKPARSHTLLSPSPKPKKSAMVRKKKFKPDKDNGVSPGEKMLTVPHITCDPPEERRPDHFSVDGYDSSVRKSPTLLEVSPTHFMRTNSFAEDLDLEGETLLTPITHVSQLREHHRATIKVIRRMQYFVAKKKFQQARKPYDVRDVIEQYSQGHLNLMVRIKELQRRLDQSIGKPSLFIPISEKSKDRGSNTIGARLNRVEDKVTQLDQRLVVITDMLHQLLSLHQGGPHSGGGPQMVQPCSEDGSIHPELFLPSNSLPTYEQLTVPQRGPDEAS
T1 sequence (Q60409 whole entry partner): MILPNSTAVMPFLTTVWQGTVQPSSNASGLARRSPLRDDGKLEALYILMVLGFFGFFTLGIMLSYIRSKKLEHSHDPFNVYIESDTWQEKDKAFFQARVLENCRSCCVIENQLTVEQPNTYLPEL

In the case of `COc1ccc(-n2nc(Sc3ccc(Cl)cc3)c(C)c(C#N)c2=O)cc1` [Compound A, 6-(4-Chlorophenylthio)-2-(4-methoxyphenyl)-5-methyl-3-oxo-2,3-dihydropyridazine-4-carbonitrile], in assay [1] (@ 10 μM), the “% Block (Guinea Pig Ventricle) IK1” value is recorded as 6%. Also, the values for the inhibition at 10 µM in assay [2] (@ 10 μM) and in assay [3] (@ 10 μM) were 4% and 29%, respectively.

As for `COc1ccc(-n2nc(Sc3ccc(C)cc3)c(C)c(C#N)c2=O)cc1` [Compound B], in assay [1] (@ 3 μM), the “% Block (Guinea Pig Ventricle) IK1” value was determined as 4.4%. Further, the results for the inhibition at 3 µM in assay [2] and in assay [3] were 13.6% and 4.2%, respectively.

Take `Cc1cc(C)c(CP(=O)(c2ccccc2)c2ccccc2)c(-c2ccc(F)c(C)c2)c1` [Compound C, 2-(Diphenylphosphinylmethyl)-4'-fluoro-3,5,3'-trimethyl-biphenyl]: the “% Block (Guinea Pig Ventricle) IK1” value in assay [1] (@ 3 μM) was 15.1%. The inhibition at 3 µM in assay [2] turned out to be 12.2%; in assay [3], 11.1%.
